Values of other authors in patent US8580861B2, “Chemical composition for skin care formulations” (Pibed Limited, priority 2008, dated 2013).
Read-outs that look alike come from different tables or passages of the source. Each block holds one molecule with its values, some of them ahead of it.

What was measured:
[1] = system: Microsporum gypseum; conditions: 10% in Vaseline petroleum jelly, topical, daily for 3 weeks; for histopathologic examination of skin tissues: versus positive control
[2] = system: Microsporum gypseum; conditions: M. gypseum
[3] = system: Staphylococcus aureus; conditions: low concentrations (0.5 to 2 mM), disk diffusion
[4] = system: Lactobacillus fermentum; conditions: flow cytometry
[5] = system: Escherichia coli

Compound: Clc1ccc(COC(Cn2ccnc2)c2ccc(Cl)cc2Cl)cc1 (centres unmarked) [econazole]
MIC ([2]; positive control): 4 to 16 µg/mL

Compound: CC(C)=CCC[C@](C)(O)C1CC=C(C)CC1 (some centres unmarked) [bisabolol]
susceptibility to ciprofloxacin, clindamycin, erythromycin, gentamicin, tetracycline, and vancomycin [3]: enhanced the susceptibility of Staphylococcus aureus | intracellular accumulation of ethidium bromide by live cells [4]: promoted the intracellular accumulation

Compound: CC(C)=CCC/C(C)=C/CC1CCCC1=O (centres unmarked) [apritone]
susceptibility to ciprofloxacin, clindamycin, erythromycin, gentamicin, tetracycline, and vancomycin [3]: enhanced the susceptibility of Staphylococcus aureus | intracellular accumulation of ethidium bromide by live cells [4]: promoted the intracellular accumulation

Compound: CC(C)=CCCC(C)=CCCC(C)=CCO [farnesol]
sensitization to polymyxin B [5]: sensitized Escherichia coli to polymyxin B | intracellular accumulation of ethidium bromide by live cells [4]: promoted the intracellular accumulation

Further lines, with some results ahead:

MIC [2]: 0.01-0.03%
Compound: C=CCc1ccc(O)c(OC)c1 [eugenol]
skin lesion scoring [1]: clinically effective at improving the lesion during the first week of application | histopathologic examination of skin tissues [1]: lower degree of hyperkeratosis and inflammatory cell infiltration than the positive control

MIC [2]: 0.5-2%
Compound: C=CC(C)(O)CCC=C(C)CCC=C(C)C (centres unmarked) [nerolidol, 3,7,11-trimethyl1,6,10-dodecatrien-3-ol]
sensitization to polymyxin B [5]: sensitized Escherichia coli to polymyxin B | susceptibility to ciprofloxacin, clindamycin, erythromycin, gentamicin, tetracycline, and vancomycin [3]: enhanced the susceptibility of Staphylococcus aureus | intracellular accumulation of ethidium bromide by live cells [4]: promoted the intracellular accumulation | hair culture test [1]: improved the skin lesions infected by M. gypseum | skin lesion scoring [1]: clinically effective at improving the lesion during the first week of application | histopathologic examination of skin tissues [1]: lower degree of hyperkeratosis and inflammatory cell infiltration than the positive control
